From patent publication EP0311002A2, “Anthracyclin derivatives, a method for their preparation and their use as a drug” (HOECHST AKTIENGESELLSCHAFT, priority 1987, dated 1989)

Assay: Qualitative solubility in solvents
Type: physicochemical

5‴-Epi-Cytorhodin S
Löslichkeit (in Methanol, Ethylacetat, Chloroform und Toluol): leicht löslich
Löslichkeit (in Wasser und Hexan): unlöslich
